{
  "source": "patent EP3884941A1",
  "about": "“INFLAMMASOME INHIBITORS AND USE THEREOF” (CENTRO DE INVESTIGACION PRINCIPE FELIPE, priority 2020, dated 2021)",
  "key": {"[1]": {"test_system": "ASC specks in THP1-ASC-GFP cells", "experiment": "ASC speck assay", "type": "cell-based, human", "conditions": "THP-1 ASC GFP, LPS 100 ng/mL + nigericin 10 µM; MM01 10 µM, VX-765 5 µM", "experimental": "THP1-ASC-GFP cells were seeded at 1×10^6/ml the day prior to use in experiments on 35 mm glass-bottom culture dishes. The following day medium was replaced containing the indicated inhibitors or vehicle for 30 min. Cells were then primed with 100 ng/ml LPS for 3h and stimulated with 10 µM nigericin for 30 min. Samples were fixed in 4% paraformaldehyde (PFA) for 10 min at RT and washed several times. Coverslips were prepared in mounting medium plus DAPI and analyzed in a Leica SP8 confocal microscope."}, "AIM2 inflammasome": {"test_system": "AIM2 inflammasome", "experiment": "AIM2 inflammasome activation, poly(dA:dT), PMA-differentiated THP-1 cells", "type": "cell-based, human", "conditions": "PMA-differentiated THP-1, poly(dA:dT) 200 µg/ml; MM01 10 µM", "experimental": "The materials and methods employed in these experiments are now described. The molecules were evaluated in the THP-1, or PMA-differentiated THP-1 cells (50 nM PMA for 24h) as described in Example 3. To stimulate NLRP1 inflammasome, cells were either mock-treated or primed with compounds at the indicated concentrations for 30 min, followed by treatment with 100 ng/mL LPS (Sigma) and 50 µg/ml MDP (Sigma) for 6 h at 37°C. In the case of NLRC4 inflammasome induction, cells were pretreated with the compounds for 30 min and then cells were stimulated for 3 h with Salmonella Typhimurium (MOI 5). To induce AIM2 inflammasome, cells were pretreated in the same conditions as before and transfected with poly(dA:dT) (200 µg/ml; Sigma) overnight using Lipofectamine 2000 (Invitrogen). Both IL-1β secretion and the release of IL-18 were monitored as previously described in Example 3."}, "Apoptosome": {"target": "T1, Apoptosome (Homo sapiens, UniProt O14727)", "T1 sequence (O14727 1-1248)": "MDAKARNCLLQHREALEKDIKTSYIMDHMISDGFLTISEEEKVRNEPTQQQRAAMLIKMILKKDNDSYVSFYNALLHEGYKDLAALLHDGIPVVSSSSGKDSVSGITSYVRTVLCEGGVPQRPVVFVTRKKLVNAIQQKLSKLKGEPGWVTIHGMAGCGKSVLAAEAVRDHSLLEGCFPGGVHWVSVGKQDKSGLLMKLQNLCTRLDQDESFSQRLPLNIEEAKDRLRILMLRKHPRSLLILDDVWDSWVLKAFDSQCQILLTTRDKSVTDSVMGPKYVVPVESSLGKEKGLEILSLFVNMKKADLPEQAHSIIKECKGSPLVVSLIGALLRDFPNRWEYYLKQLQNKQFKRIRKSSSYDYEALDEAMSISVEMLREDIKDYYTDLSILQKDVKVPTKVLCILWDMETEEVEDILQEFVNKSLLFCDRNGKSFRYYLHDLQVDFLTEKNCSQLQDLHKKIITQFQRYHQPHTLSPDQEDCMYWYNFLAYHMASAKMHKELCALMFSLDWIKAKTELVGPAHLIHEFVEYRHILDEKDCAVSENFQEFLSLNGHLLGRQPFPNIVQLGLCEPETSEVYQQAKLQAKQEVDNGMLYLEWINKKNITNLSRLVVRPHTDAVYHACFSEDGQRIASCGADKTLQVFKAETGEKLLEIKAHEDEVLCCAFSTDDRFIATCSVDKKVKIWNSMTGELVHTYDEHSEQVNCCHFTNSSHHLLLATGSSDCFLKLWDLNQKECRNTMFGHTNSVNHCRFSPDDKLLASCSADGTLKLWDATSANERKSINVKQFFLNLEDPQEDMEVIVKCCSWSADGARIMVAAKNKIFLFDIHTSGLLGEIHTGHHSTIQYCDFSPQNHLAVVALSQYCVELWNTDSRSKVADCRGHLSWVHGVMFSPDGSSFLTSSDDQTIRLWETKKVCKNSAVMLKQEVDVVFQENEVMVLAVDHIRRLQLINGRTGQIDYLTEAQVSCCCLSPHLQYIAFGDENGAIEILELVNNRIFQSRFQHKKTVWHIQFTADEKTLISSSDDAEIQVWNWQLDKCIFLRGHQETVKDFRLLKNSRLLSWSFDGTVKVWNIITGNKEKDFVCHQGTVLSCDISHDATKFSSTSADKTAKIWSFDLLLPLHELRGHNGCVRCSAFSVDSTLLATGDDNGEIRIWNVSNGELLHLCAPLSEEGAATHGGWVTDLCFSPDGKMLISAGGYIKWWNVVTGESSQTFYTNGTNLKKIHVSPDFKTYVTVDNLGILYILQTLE", "experiment": "Apoptosome activity assay", "type": "biochemical", "conditions": "reconstituted in vitro; MM01 5 µM (Figure 2C)", "experimental": "Apoptosome was reconstituted by incubating rApaf-1 (100 nM) with vehicle (DMSO) or compounds in assay buffer (20 mM HEPES, 10 mMKCI, 1.5 mM MgCI2, 1 mM EDTA, 1 mM EGTA, 1 mM DTT, 0.1 mM PMSF) at 30°C for 30 min. Next, 100 µM dATP and 100 nM Cytc were added and incubated for additional 40 min. Then, caspase-9 (100 nM) was added, and activity was monitored by the Ac-LEHD-afc substrate (50 µM) using a Victor 2 spectrofluorimeter."}},
  "data": [
    {"smiles": "C=CCN1C(=O)/C(=C2/C(=O)Nc3ccccc32)SC1=S", "note": "[MM01]", "values": [
      {"measurement": "ASC speck formation", "setting": "[1]", "result": "inhibited"},
      {"measurement": "IL-1β secretion", "setting": "AIM2 inflammasome", "result": "significantly decreased"},
      {"measurement": "inhibition of the apoptosome", "setting": "Apoptosome", "result": "No inhibition"}
    ]}
  ]
}
